In article PMC9082326 (RSC Advances, 2019):
Like-named read-outs stand apart in the source and are kept apart here.

What was measured:
Pneumocystis = settings: cited from earlier work
mammalian cell lines = settings: cited from earlier work
hERG [1] = target: T1, hERG (Homo sapiens, UniProt Q12809); experiment: Immunofluorescence microscopy of hERG localization in HEK-hERG cells; type: cell-based; settings: 24 h, pentamidine 10 μM, analogues 10 μM
hERG [2] = target: T1, hERG; experiment: Western blot of hERG maturation; type: cell-based; settings: 24 h, HEK-hERG; for hERG maturation (mature/immature ratio), dose–response: 0.5–20 μM

T1 sequence (Q12809 whole entry): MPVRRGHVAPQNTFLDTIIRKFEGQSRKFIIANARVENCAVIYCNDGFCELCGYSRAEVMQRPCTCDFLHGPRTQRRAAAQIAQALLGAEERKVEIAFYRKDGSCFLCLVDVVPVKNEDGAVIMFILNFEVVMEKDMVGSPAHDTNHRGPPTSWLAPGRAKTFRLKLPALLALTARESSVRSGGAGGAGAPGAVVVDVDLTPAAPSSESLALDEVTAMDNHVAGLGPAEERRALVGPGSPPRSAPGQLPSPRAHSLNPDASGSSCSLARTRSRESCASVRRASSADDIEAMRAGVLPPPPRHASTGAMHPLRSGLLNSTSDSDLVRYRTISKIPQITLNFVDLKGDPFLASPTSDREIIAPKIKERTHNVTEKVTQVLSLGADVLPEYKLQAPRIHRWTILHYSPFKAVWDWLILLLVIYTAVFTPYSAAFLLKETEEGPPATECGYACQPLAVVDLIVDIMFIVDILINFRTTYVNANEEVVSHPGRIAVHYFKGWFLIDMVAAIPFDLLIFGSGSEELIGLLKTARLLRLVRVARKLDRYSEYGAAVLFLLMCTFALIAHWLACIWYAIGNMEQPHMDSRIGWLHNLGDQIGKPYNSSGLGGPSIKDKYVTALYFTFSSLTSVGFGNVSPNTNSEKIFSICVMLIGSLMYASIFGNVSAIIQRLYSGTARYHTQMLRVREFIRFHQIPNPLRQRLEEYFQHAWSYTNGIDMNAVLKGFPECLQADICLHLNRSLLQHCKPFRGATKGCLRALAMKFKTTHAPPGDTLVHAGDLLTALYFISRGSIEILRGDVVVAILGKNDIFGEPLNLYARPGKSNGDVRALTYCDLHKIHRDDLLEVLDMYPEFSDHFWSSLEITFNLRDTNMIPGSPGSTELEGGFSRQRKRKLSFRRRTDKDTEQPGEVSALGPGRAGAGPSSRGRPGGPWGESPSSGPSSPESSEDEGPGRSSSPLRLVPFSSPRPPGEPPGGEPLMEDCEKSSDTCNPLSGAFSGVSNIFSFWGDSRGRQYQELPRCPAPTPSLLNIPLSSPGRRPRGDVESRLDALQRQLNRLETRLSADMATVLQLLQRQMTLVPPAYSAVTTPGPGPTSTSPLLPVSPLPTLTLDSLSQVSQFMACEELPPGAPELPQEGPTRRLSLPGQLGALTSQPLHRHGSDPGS

SMILES	subcellular localization / membrane expression of hERG (hERG [1])	hERG maturation (mature/immature ratio), dose–response (hERG [2])	cytotoxicity (mammalian cell lines; mammalian cell lines)	also measured
Cc1cc(C(=N)N)cc(C)c1OCCN(CCOc1c(C)cc(C(=N)N)cc1C)S(=O)(=O)c1ccccc1.Cl.Cl [3-phenylsulfonyl-1,5-bis(4-amidino-2,6-dimethylphenoxy)-3-azapentane dihydrochloride, reference compound]	–	–	–	anti-Pneumocystis activity (Pneumocystis): promising activity; cytotoxicity (mammalian cell lines): very low cytotoxicity
Cl.Cl.N=C(N)c1ccc(OCCSCCOc2ccc(C(=N)N)cc2)cc1 [Compound 1, 1,5-bis(4-amidinophenoxy)-3-thiapentane dihydrochloride]	pattern comparable with control cells and clear membrane staining was detected	dose-dependently decreased	less or moderate cytotoxicity	–
Cl.Cl.N=C(N)c1ccc(SCCOCCSc2ccc(C(=N)N)cc2)cc1 [Compound 2, 1,5-bis[4-(amidino)phenylthio]-3-oxapentane dihydrochloride]	pattern comparable with control cells and clear membrane staining was detected	dose-dependently decreased	–	–
Cl.Cl.c1cc(C2=NCCN2)ccc1OCCSCCOc1ccc(C2=NCCN2)cc1 [Compound 4, 1,5-bis[4-(4,5-dihydro-2-imidazolyl)phenoxy]-3-thiapentane dihydrochloride]	–	–	less or moderate cytotoxicity	–
CN(CCOc1ccc(NS(C)(=O)=O)cc1)CCc1ccc(NS(C)(=O)=O)cc1 [Dofetilide, reference compound]	–	–	–	hERG maturation (mature/immature ratio) (hERG [2]; pentamidine 10 μM, dofetilide 1 μM, analogues 1 and 10 μM): increases
